Reference: patent publication US20220144847A1, “HETEROCYCLIC COMPOUND, PHARMACEUTICAL COMPOSITION COMPRISING SAME, PREPARATION METHOD THEREFOR, AND USE THEREOF” (Sichuan Kelun-Biotech Biopharmaceutical Co., Ltd., priority 2019, published 2022)
Like-named read-outs stand apart in the source and are kept apart here.

Experiments:
RET-WT = RET-WT (Homo sapiens, UniProt P07949); assay: RET inhibition experiment (HTRF KinEASE-TK kit), wild-type RET enzyme; format: biochemical; conditions: read-out: The IC50 (nM) for inhibiting RET-WT
Chain of RET-WT (P07949 29-1114): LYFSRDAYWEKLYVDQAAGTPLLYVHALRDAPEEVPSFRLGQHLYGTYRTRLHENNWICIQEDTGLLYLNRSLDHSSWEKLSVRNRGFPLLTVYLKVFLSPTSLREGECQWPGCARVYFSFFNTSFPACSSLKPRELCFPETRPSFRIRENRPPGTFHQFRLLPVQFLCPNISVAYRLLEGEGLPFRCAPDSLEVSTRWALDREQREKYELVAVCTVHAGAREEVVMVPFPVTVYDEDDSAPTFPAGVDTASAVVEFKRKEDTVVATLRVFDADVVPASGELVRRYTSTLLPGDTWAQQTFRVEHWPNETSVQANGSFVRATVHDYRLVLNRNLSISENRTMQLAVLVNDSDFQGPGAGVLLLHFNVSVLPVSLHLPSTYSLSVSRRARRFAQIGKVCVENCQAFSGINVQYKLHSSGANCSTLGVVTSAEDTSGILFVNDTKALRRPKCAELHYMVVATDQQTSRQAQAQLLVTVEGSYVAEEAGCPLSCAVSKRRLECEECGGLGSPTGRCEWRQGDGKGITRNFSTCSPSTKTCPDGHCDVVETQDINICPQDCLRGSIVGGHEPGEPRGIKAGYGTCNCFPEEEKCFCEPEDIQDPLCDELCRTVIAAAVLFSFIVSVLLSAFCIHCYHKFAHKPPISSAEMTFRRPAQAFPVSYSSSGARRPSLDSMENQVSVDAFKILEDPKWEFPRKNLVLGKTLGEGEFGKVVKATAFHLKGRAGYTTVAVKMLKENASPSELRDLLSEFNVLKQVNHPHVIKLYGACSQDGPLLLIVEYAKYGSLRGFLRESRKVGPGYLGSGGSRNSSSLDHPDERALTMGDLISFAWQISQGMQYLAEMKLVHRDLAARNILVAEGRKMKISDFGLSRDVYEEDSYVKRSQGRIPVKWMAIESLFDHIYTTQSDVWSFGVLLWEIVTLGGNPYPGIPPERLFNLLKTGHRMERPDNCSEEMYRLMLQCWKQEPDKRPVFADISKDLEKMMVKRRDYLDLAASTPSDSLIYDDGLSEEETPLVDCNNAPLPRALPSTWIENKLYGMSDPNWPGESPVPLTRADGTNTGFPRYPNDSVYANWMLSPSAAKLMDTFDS
Description: (§1) Experimental method: […] After incubation at room temperature for 40 min, TK antibody-cryptate and streptavidin-XL665 were added, and the test was performed after incubation at room temperature for 45 min. With the solvent group (DMSO) as the negative control and the buffer group (without RET enzyme) as the blank control, the relative inhibitory activity percentages (i.e., inhibition rates) of different concentrations of the compounds were computed as per the following formula: […] The relative inhibitory activity percentages of different concentrations of the compounds were plotted with respect to the compound concentrations, and the curve was fitted according to a four-parameter model to compute the IC50 value as per the following formula: y=min+(max-min)/(1+(x/IC50)^(-Hillslope)) where y is the relative inhibitory activity percentage, max is the maximum value of the fitted curve, min is the minimum value of the fitted curve, x is the logarithmic concentration of the compound, and Hillslope is the slope of the curve.

RET-V804L = RET-V804L (Homo sapiens, UniProt P07949, V804L); assay: RET inhibition experiment (HTRF KinEASE-TK kit), mutant RET-V804L; format: biochemical; conditions: read-out: The IC50 (nM) for inhibiting RET-V804L
Chain of RET-V804L (P07949 29-1114 V804L): as the sequence (P07949 29-1114) above, with V776L counted along it
Description: as §1

RET-M918T = RET-M918T (Homo sapiens, UniProt P07949, M918T); assay: RET inhibition experiment (HTRF KinEASE-TK kit), mutant RET-M918T; format: biochemical; conditions: read-out: The IC50 (nM) for inhibiting the enzyme RET-M918T
Chain of RET-M918T (P07949 29-1114 M918T): as the sequence (P07949 29-1114) above, with M890T counted along it
Description: as §1

RET-CCDC6 = target: T1, RET-CCDC6 (Homo sapiens, UniProt P07949); assay: RET inhibition experiment (HTRF KinEASE-TK kit), fusion-type RET enzyme; format: biochemical; conditions: read-out: The IC50 (nM) for inhibiting RET-CCDC6
T1 construct: CCDC6 fusion partner (Q16204 for human); the other entry of the earlier key: CCDC6 (Q16204, Coiled-coil domain-containing protein 6)
T1 sequence (P07949 with tags, fused parts or gaps): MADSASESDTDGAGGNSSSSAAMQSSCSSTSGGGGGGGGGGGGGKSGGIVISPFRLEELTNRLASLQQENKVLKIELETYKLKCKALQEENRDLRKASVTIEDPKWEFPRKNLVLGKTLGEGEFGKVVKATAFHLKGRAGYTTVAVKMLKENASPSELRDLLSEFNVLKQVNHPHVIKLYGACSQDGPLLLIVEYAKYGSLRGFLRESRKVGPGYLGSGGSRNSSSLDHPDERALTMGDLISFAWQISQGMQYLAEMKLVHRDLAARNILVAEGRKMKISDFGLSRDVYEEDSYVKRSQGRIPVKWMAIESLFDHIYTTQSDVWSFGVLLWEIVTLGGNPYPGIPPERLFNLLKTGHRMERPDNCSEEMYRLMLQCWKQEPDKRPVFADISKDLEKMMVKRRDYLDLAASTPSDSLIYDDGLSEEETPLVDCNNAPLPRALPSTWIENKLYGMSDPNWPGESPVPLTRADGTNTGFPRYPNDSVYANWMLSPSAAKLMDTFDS
Description: as §1

[1] = Pharmacokinetics and tissue distribution of compounds in rats; format: in vivo; conditions: male, SD, rat, PO 5 mg/kg; for AUC(0-t): read-out: AUC AUClast; for Cmax: read-out: Peak concentration Cmax; for Kp: read-out: T/P Ratio of AUClast in tissue to plasma; for Tmax: read-out: Time to peak concentration Tmax
Description: By intragastric administration (PO) of BLU-667 (prepared according to Example 5 of WO2017/079140A1) and Compound 17 to male SD rats respectively, the plasma concentrations and the tissue concentrations of BLU-667 and Compound 17 in brains, lungs and thyroid of rats were determined to investigate the pharmacokinetic characteristics. The dosage of administration by PO was 5 mg/kg, and the solvent was 0.5% MC (methylcellulose). With administration by PO, blood samples were collected at different time points (0 h before administration, and 0.25 h, 0.5 h, 1 h, 2 h, 4 h, 6 h, 8 h, and 24 h after administration). The blood samples were anticoagulated with dipotassium edetate, and centrifuged to provide plasma samples, which were stored at −80° C. Rats were sacrificed by exsanguination from abdominal aorta at 0.5 h, 2 h, 8 h, and 24 h after PO administration. Brain, lung and thyroid were collected, washed, and homogenized with normal saline at a certain ratio, to provide tissue samples which were stored at −80° C. The plasma samples and tissue samples were processed with precipitated protein and then analyzed by LC-MS/MS. The pharmacokinetic parameters were computed using WinNonlin 6.3 software and using a non-compartmental model.

[2] = system: human medullary thyroid carcinoma TT cells; assay: Efficacy test in mice, subcutaneous xenograft tumor of TT cells; format: in vivo, Balb/c-nu mouse; conditions: 5 mg/kg, PO, BID; TT nude mouse xenograft
Description: Experimental purpose: To evaluate the in vivo efficacy of Compound 17 and BLU-667 in a Balb/c-nu mouse model with a subcutaneous xenograft tumor of human medullary thyroid carcinoma TT cells.
Drug preparation: Compound 17 was dissolved in 0.1 M aqueous solution of H3PO4, and BLU-667 was dissolved in 0.1 M aqueous solution of HOAc, to prepare clear solutions (pH: about 4.0). An aqueous solution of H3PO4 at a pH of about 4.0 was used for the solvent control group. The mode of administration was PO, BID.
Tumor measurement: The tumor diameter was measured with a vernier caliper twice a week. The computing formula of the tumor volume is: V=0.5×a×b^2, where a represents a long diameter of the tumor, and b represents a short diameter of the tumor. Evaluation of tumor growth inhibition rate (TGI (%)) for tumor inhibition efficacy of the compounds: TGI (%)=[(1-(mean tumor volume of a treatment group at the end of drug administration-mean tumor volume of the treatment group at the commencement of drug administration))/(mean tumor volume of a solvent control group at the end of treatment-mean tumor volume of the solvent control group at the commencement of treatment)]×100%.
Statistical analysis: Prism Graphpad5.0 software was used for statistical analysis based on the relative tumor volume at the end of the experiment. The comparison between multiple groups was analyzed by two-way ANOVA, and p<0.05 was considered as a significant difference.
Experimental results: In the TT nude mouse xenograft model of human medullary thyroid carcinoma, Compound 17 has a significant […] anti-tumor effect at a dose of 5 mg/kg. […] Relative tumor growth rate T/C (%)=TRTV/CRTV×100%, where TRTV is the mean relative tumor volume of the test compound group, CRTV is the relative tumor volume of the solvent control group; and the relative tumor volume RTV=Vt/V0, where V0 is the mean tumor volume at the commencement of the administration, and Vt is the mean tumor volume measured on day t after the administration.

Cc1cc(Nc2cc(C)[nH]n2)nc(-c2ccc(N3CC4CC(C3)N4Cc3ccc(-n4cc(F)cn4)nc3)nc2)n1 [Compound 17, 2-(6-(6-((6-(4-fluoro-1H-pyrazol-1-yl)pyridin-3-yl)methyl)-3,6-diazabicyclo[3.1.1]heptan-3-yl)pyridin-3-yl)-6-methyl-N-(5-methyl-1H-pyrazol-3-yl)pyrimidin-4-amine]
IC50 (RET-WT): 1.32 ± 0.31 nM | IC50 (RET-V804L): 6.54 ± 2.43 nM | IC50 (RET-M918T): 1.47 ± 0.29 nM | IC50 (RET-CCDC6): 2.5 ± 0.55 nM | AUC(0-t) ([1]; brain): 1010 ng·h/mL | Cmax ([1]; brain): 153 ng/mL | Kp ([1]; brain): 0.15 | Tmax ([1]; brain): 2 h | AUC(0-t) ([1]; lung): 79600 ng·h/mL | Cmax ([1]; lung): 9620 ng/mL | Kp ([1]; lung): 11.7 | Tmax ([1]; lung): 2 h | AUC(0-t) ([1]; plasma): 6790 ng·h/mL | Cmax ([1]; plasma): 772 ng/mL | Kp ([1]; plasma): 1 | Tmax ([1]; plasma): 2 h | AUC(0-t) ([1]; thyroid): 11400 ng·h/mL | Cmax ([1]; thyroid): 1870 ng/mL | Kp ([1]; thyroid): 1.68 | Tmax ([1]; thyroid): 8.49 h | Relative tumor growth rate T/C [2]: 17.44% | Tumor growth inhibition rate TGI [2]: 131.36%
